# From patent US10752624B2, “Kinase inhibitors” (Origenis GmbH, priority 2012, dated 2020)
# Molecular target: LRRK2 (Homo sapiens, UniProt Q5S007)
# Test: LRRK2-LRRK2 G2019S-Assay (LanthaScreen Eu Kinase Binding Assay)
# Conditions: 5 nM LRRK2, 10 nM tracer 236, 2 nM EU-Anti-GST antibody, 1 h at RT; read-out: LRRK2 Activities: IC50
# Method in brief: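 Compound competition with Alexa Fluor 647 tracer 236 (10 nM) was measured after 1 h at room temperature, using 5 nM LRRK2 (wild type or mutant) bound to 2 nM Eu-anti-GST antibody. IC50 was derived from the acceptor/donor (665/615 nm) ratio using a variable-slope dose-response fit.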
# Sequence of LRRK2 (Q5S007 970-2527 limits assumed): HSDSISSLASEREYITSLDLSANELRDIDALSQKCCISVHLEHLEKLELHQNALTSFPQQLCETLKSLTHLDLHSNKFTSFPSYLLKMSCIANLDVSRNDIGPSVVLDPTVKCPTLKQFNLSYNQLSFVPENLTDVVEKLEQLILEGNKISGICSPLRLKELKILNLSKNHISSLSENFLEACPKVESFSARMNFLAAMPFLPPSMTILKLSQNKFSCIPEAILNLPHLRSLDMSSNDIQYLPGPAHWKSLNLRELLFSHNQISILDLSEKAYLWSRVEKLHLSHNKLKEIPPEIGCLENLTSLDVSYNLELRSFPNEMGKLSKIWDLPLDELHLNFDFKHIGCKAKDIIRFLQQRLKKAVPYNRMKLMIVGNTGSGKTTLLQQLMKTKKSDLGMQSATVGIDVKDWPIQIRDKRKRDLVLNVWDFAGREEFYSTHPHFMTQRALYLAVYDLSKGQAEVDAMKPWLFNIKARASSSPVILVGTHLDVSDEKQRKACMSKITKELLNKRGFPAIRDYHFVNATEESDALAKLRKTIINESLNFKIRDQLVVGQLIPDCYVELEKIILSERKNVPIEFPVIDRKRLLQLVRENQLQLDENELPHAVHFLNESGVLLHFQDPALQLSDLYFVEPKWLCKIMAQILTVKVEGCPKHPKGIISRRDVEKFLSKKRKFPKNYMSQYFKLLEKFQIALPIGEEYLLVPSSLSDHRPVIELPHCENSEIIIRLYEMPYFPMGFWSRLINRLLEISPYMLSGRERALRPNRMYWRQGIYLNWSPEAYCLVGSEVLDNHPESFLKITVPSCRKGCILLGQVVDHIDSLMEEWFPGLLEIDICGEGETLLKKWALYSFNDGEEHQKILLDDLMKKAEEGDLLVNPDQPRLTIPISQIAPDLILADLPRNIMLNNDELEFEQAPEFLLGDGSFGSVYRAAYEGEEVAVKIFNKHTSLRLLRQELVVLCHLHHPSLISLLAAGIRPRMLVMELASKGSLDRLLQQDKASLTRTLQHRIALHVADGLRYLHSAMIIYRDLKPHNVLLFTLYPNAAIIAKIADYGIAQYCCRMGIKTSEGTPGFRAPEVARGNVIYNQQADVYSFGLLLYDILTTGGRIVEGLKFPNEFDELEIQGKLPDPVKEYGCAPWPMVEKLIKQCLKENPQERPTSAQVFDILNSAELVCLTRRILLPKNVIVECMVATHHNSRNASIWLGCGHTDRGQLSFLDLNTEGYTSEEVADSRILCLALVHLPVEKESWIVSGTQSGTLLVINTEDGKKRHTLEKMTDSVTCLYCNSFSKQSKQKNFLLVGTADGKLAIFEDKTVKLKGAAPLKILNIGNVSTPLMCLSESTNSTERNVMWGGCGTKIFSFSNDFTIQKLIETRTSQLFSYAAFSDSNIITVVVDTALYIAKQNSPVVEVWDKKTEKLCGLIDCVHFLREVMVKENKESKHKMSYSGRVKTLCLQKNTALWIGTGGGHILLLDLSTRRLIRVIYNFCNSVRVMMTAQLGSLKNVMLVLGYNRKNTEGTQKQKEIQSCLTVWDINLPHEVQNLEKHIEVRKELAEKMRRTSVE
row,SMILES,IC50
1,"CC(C)n1cc(Nc2nc3ccc(S(C)(=O)=O)cc3c3cn[nH]c23)c(C(N)=O)n1 [Example 250, 1-isopropyl-4-((8-(methylsulfonyl)-3H-pyrazolo[3,4-c]quinolin-4-yl)amino)-1H-pyrazole-3-carboxamide]",100 to 1000 nM
2,"CC(C)n1ncc(Nc2nc3ccc(S(C)(=O)=O)cc3c3cn[nH]c23)c1C(N)=O [Example 251, 1-isopropyl-4-((8-(methylsulfonyl)-3H-pyrazolo[3,4-c]quinolin-4-yl)amino)-1H-pyrazole-5-carboxamide]",100 to 1000 nM
3,"COc1cccc2nc(Nc3cnn(C4CCNCC4)c3Cl)c3[nH]ncc3c12 [Example 254, N-(5-chloro-1-(piperidin-4-yl)-1H-pyrazol-4-yl)-9-methoxy-3H-pyrazolo[3,4-c]quinolin-4-amine]",< 10 nM
4,"COc1cccc2nc(Nc3cnn(C4CCOCC4)c3Cl)c3[nH]ncc3c12 [Example 255, N-(5-chloro-1-(tetrahydro-2H-pyran-4-yl)-1H-pyrazol-4-yl)-9-methoxy-3H-pyrazolo[3,4-c]quinolin-4-amine]",< 10 nM
5,"CS(=O)(=O)c1ccc2nc(Nc3cnn(C4CCOCC4)c3Cl)c3[nH]ncc3c2c1 [Example 265, N-(5-chloro-1-(tetrahydro-2H-pyran-4-yl)-1H-pyrazol-4-yl)-8-(methylsulfonyl)-3H-pyrazolo[3,4-c]quinolin-4-amine]",< 10 nM
6,"COc1cccc2nc(Nc3cnn(C(C)C)c3C(N)=O)c3[nH]ncc3c12 [Example 266, 1-isopropyl-4-((9-methoxy-3H-pyrazolo[3,4-c]quinolin-4-yl)amino)-1H-pyrazole-5-carboxamide]",10 to 100 nM
7,"COCCn1cc(Nc2nc3cccc(OC)c3c3cn[nH]c23)c(C(F)(F)F)n1 [Example 267, 9-methoxy-N-(1-(2-methoxyethyl)-3-(trifluoromethyl)-1H-pyrazol-4-yl)-3H-pyrazolo[3,4-c]quinolin-4-amine]",100 to 1000 nM
8,"COCCn1ncc(Nc2nc3cccc(OC)c3c3cn[nH]c23)c1C(F)(F)F [Example 268, 9-methoxy-N-(1-(2-methoxyethyl)-5-(trifluoromethyl)-1H-pyrazol-4-yl)-3H-pyrazolo[3,4-c]quinolin-4-amine]",100 to 1000 nM
9,"Cc1nn(CCF)cc1Nc1nc2ccc(S(C)(=O)=O)cc2c2cn[nH]c12 [Example 269, N-(1-(2-fluoroethyl)-3-methyl-1H-pyrazol-4-yl)-8-(methylsulfonyl)-3H-pyrazolo[3,4-c]quinolin-4-amine]",< 10 nM
10,"Cc1c(Nc2nc3ccc(S(C)(=O)=O)cc3c3cn[nH]c23)cnn1CCF [Example 270, N-(1-(2-fluoroethyl)-5-methyl-1H-pyrazol-4-yl)-8-(methylsulfonyl)-3H-pyrazolo[3,4-c]quinolin-4-amine]",< 10 nM
11,"COCCn1cc(Nc2nc3ccc(S(C)(=O)=O)cc3c3cn[nH]c23)c(C(F)(F)F)n1 [Example 271, N-(1-(2-methoxyethyl)-3-(trifluoromethyl)-1H-pyrazol-4-yl)-8-(methylsulfonyl)-3H-pyrazolo[3,4-c]quinolin-4-amine]",10 to 100 nM
12,"COCCn1ncc(Nc2nc3ccc(S(C)(=O)=O)cc3c3cn[nH]c23)c1C(F)(F)F [Example 272, N-(1-(2-methoxyethyl)-5-(trifluoromethyl)-1H-pyrazol-4-yl)-8-(methylsulfonyl)-3H-pyrazolo[3,4-c]quinolin-4-amine]",10 to 100 nM
13,"COCCn1cc(Nc2nc3ccc(S(C)(=O)=O)cc3c3cn[nH]c23)c(C#N)n1 [Example 274, 1-(2-methoxyethyl)-4-((8-(methylsulfonyl)-3H-pyrazolo[3,4-c]quinolin-4-yl)amino)-1H-pyrazole-3-carbonitrile]",10 to 100 nM
14,"COCCn1ncc(Nc2nc3cccc(OC)c3c3cn[nH]c23)c1Br [Example 275, N-(5-bromo-1-(2-methoxyethyl)-1H-pyrazol-4-yl)-9-methoxy-3H-pyrazolo[3,4-c]quinolin-4-amine]",10 to 100 nM
15,"COCCn1ncc(Nc2nc3cccc(OC)c3c3cn[nH]c23)c1F [Example 276, N-(5-fluoro-1-(2-methoxyethyl)-1H-pyrazol-4-yl)-9-methoxy-3H-pyrazolo[3,4-c]quinolin-4-amine]",10 to 100 nM
16,"COCCn1ncc(Nc2nc3ccc(S(C)(=O)=O)cc3c3cn[nH]c23)c1Br [Example 279, N-(5-bromo-1-(2-methoxyethyl)-1H-pyrazol-4-yl)-8-(methylsulfonyl)-3H-pyrazolo[3,4-c]quinolin-4-amine]",10 to 100 nM
17,"Cc1c(Nc2nc3ccc(S(C)(=O)=O)cc3c3cn[nH]c23)cnn1C1CCOCC1 [Example 281, N-(5-methyl-1-(tetrahydro-2H-pyran-4-yl)-1H-pyrazol-4-yl)-8-(methylsulfonyl)-3H-pyrazolo[3,4-c]quinolin-4-amine]",10 to 100 nM
18,"COCCn1ncc(Nc2nc3ccc(S(C)(=O)=O)cc3c3cn[nH]c23)c1C [Example 282, N-(1-(2-methoxyethyl)-5-methyl-1H-pyrazol-4-yl)-8-(methylsulfonyl)-3H-pyrazolo[3,4-c]quinolin-4-amine]",100 to 1000 nM
19,"COc1ccc2nc(Nc3ccc(N4CCC(O)CC4)cc3)c3[nH]ncc3c2c1 [Example 296, 1-(4-((8-methoxy-3H-pyrazolo[3,4-c]quinolin-4-yl)amino)phenyl)piperidin-4-ol]",10 to 100 nM

row,SMILES,IC50
1,"COc1cccc2c1nc(Nc1ccc(N3CCOCC3)cc1)c1[nH]ncc12 [Example 304, 6-methoxy-N-(4-morpholinophenyl)-3H-pyrazolo[3,4-c]quinolin-4-amine]",100 to 1000 nM
2,"COc1cccc2c1nc(Nc1cnn(C(C)C)c1)c1[nH]ncc12 [Example 305, N-(1-isopropyl-1H-pyrazol-4-yl)-6-methoxy-3H-pyrazolo[3,4-c]quinolin-4-amine]",10 to 100 nM
3,"COCCCn1cc(Nc2nc3c(OC)cccc3c3cn[nH]c23)cn1 [Example 306, 6-methoxy-N-(1-(3-methoxypropyl)-1H-pyrazol-4-yl)-3H-pyrazolo[3,4-c]quinolin-4-amine]",100 to 1000 nM
4,"COc1cc(OC)c2nc(Nc3ccc(C(=O)N4CCOCC4)cc3)c3[nH]ncc3c2c1 [Example 308, (4-((6,8-dimethoxy-3H-pyrazolo[3,4-c]quinolin-4-yl)amino)phenyl)(morpholino)methanone]",10 to 100 nM
5,"CC(C)(O)Cn1cc(Nc2nc3ccc(S(C)(=O)=O)cc3c3cn[nH]c23)cn1 [Example 317, 2-methyl-1-(4-((8-(methylsulfonyl)-3H-pyrazolo[3,4-c]quinolin-4-yl)amino)-1H-pyrazol-1-yl)propan-2-ol]",10 to 100 nM
6,"CCN1C(=O)COc2ccc(Nc3nc4ccc(OC)cc4c4c[nH]nc34)cc21 [Example 318, 4-ethyl-6-((8-methoxy-2H-pyrazolo[3,4-c]quinolin-4-yl)amino)-2H-benzo[b][1,4]oxazin-3(4H)-one]",100 to 1000 nM
7,"COc1ccc2nc(Nc3cnn(-c4ccccn4)c3)c3n[nH]cc3c2c1 [Example 319, 8-methoxy-N-(1-(pyridin-2-yl)-1H-pyrazol-4-yl)-2H-pyrazolo[3,4-c]quinolin-4-amine]",10 to 100 nM
8,"COc1ccc2nc(Nc3cnn(C(C)c4ccccc4)c3)c3n[nH]cc3c2c1 (stereo not shown) [Example 320, 8-methoxy-N-(1-(1-phenylethyl)-1H-pyrazol-4-yl)-2H-pyrazolo[3,4-c]quinolin-4-amine]",100 to 1000 nM
9,"COc1ccc2nc(Nc3ccc4c(c3)N(C)C(=O)CO4)c3n[nH]cc3c2c1 [Example 322, 6-((8-methoxy-2H-pyrazolo[3,4-c]quinolin-4-yl)amino)-4-methyl-2H-benzo[b][1,4]oxazin-3(4H)-one]",100 to 1000 nM
10,"Cc1nn(CC(C)(C)O)cc1Nc1nc2ccc(S(C)(=O)=O)cc2c2c[nH]nc12 [Example 325, 2-methyl-1-(3-methyl-4-((8-(methylsulfonyl)-2H-pyrazolo[3,4-c]quinolin-4-yl)amino)-1H-pyrazol-1-yl)propan-2-ol]",100 to 1000 nM
11,"Cc1c(Nc2nc3ccc(S(C)(=O)=O)cc3c3c[nH]nc23)cnn1CC(C)(C)O [Example 326, 2-methyl-1-(5-methyl-4-((8-(methylsulfonyl)-2H-pyrazolo[3,4-c]quinolin-4-yl)amino)-1H-pyrazol-1-yl)propan-2-ol]",100 to 1000 nM
12,"CS(=O)(=O)c1ccc2nc(Nc3cc(C(=O)O)n[nH]3)c3n[nH]cc3c2c1 [Example 335, 5-((8-(methylsulfonyl)-2H-pyrazolo[3,4-c]quinolin-4-yl)amino)-1H-pyrazole-3-carboxylic acid]",100 to 1000 nM
13,"CS(=O)(=O)c1ccc2nc(Nc3ccccc3O)c3n[nH]cc3c2c1 [Example 336, 2-((8-(methylsulfonyl)-2H-pyrazolo[3,4-c]quinolin-4-yl)amino)phenol]",100 to 1000 nM
14,"C[C@H]1CCCN1c1cccc(Nc2nc3ccc(S(C)(=O)=O)cc3c3c[nH]nc23)c1 [Example 337, (S)—N-(3-(2-methylpyrrolidin-1-yl)phenyl)-8-(methylsulfonyl)-2H-pyrazolo[3,4-c]quinolin-4-amine]",100 to 1000 nM
15,"CCN1C(=O)COc2ccc(Nc3nc4ccc(S(C)(=O)=O)cc4c4c[nH]nc34)cc21 [Example 342, 4-ethyl-6-((8-(methylsulfonyl)-2H-pyrazolo[3,4-c]quinolin-4-yl)amino)-2H-benzo[b][1,4]oxazin-3(4H)-one]",10 to 100 nM
16,"CS(=O)(=O)c1ccc2nc(Nc3ccc4c(c3)NC(=O)CO4)c3n[nH]cc3c2c1 [Example 343, 6-((8-(methylsulfonyl)-2H-pyrazolo[3,4-c]quinolin-4-yl)amino)-2H-benzo[b][1,4]oxazin-3(4H)-one]",10 to 100 nM
17,"COc1ccc2nc(Nc3cnn(C(C)C(=O)O)c3)c3n[nH]cc3c2c1 (stereo not shown) [Example 347, 2-(4-((8-methoxy-2H-pyrazolo[3,4-c]quinolin-4-yl)amino)-1H-pyrazol-1-yl)propanoic acid]",100 to 1000 nM
18,"CS(=O)(=O)c1ccc2nc(Nc3ccc4c(c3)N(C(=O)C3CC3)CCC4)c3n[nH]cc3c2c1 [Example 350, cyclopropyl(7-((8-(methylsulfonyl)-2H-pyrazolo[3,4-c]quinolin-4-yl)amino)-3,4-dihydroquinolin-1(2H)-yl)methanone]",100 to 1000 nM
